Reference: US20050048011A1, “Skin preparation comprising a tocopherol derivative for external application” (priority 2001, published 2005)

Tests used:
[1] = test system: skin removed from the back of a hairless mouse; details: 4 hours at 37° C.; for amount of γ-tocopherol in the skin: Dulbecco's MEM containing 0.50 of test substance on epidermis side, not added: lower than detection limit; for increase of the γ-tocopherol amount in treated skin: hairless mouse skin
Method: Then, the amount of γ-tocopherol in the skin was measured.

[2] = test system: three dimensional model of human skin tissue (TESTSKIN LSD-d, Toyobo K. K.); assay: Permeability of three dimensional model of human skin tissue and tocopherol conversion; details: for level of tocopherol in model skin: 1% solution, 6 hours
Method: 40 μL of a 1% solution of the below test substances 1) to 7) dissolved or dispersed in Dulbecco's PBS (−) were applied onto the tissue surface of a three dimensional model of human skin tissue (TESTSKIN™ LSD-d, Toyobo K. K.) and were cultured at 37° C. under 5% CO2 for 6 hours. After this, the solutions of the test substances were removed by aspiration and sampling was carried out.
The sample model skin was washed with Dulbecco's PBS (−) and the tissue surfaces onto which the test substances were applied were punched out with a φ 6 mm punch, and were homogenated in a HEPES buffer solution (pH 7.2), and quantitative analysis of the α-tocopherol and γ-tocopherol were carried out by high speed liquid chromatography. Quantitative analysis of the amount of protein in the model skin was carried out according to the Lowry method. • 1) α-tocopherol dimethylglycine ester hydrochloride • 2) α-tocopherol sarcosine ester hydrochloride • 3) αa-tocopherol glycine ester • 4) γ-tocopherol dimethylglycine ester hydrochloride • 5) γ-tocopherol sarcosine ester hydrochloride • 6) γ-tocopherol glycine ester • 7) tocopherol acetate

[3] = test system: keratinocytes of normal human epidermis; assay: Conversion to γ-tocopherol in keratinocyte of human epidermis (cell spall solution); details: 37° C. for 2 hours; for increase of the γ-tocopherol amount in cell spall solution: 1 mM; for amount of γ-tocopherol liberated in the reaction solution: final concentration 1 mM, not added: lower than detection limit
Method: The cells were harvested and spalled by freeze-thawing method. To this cell spall solution, 1), 2) or 3) was added to have a final concentration of 1 mM. The resulting solution was kept at 37° C. for 2 hours and then the amount of γ-tocopherol liberated in the reaction solution was measured.

[4] = test system: skin removed from the back of a hairless mouse; assay: Evaluation of skin penetrability (α-tocopherol amount in skin); details: 4 hours at 37° C.; for amount of α-tocopherol in the skin: Dulbecco's MEM containing 0.50 of test substance on epidermis side, not added: 10 nmol/g of skin; for increase of the α-tocopherol amount in treated skin: hairless mouse skin
[5] = test system: keratinocytes of normal human epidermis; assay: Conversion to α-tocopherol in keratinocyte of human epidermis (cell spall solution); details: 37° C. for 2 hours; for increase of the α-tocopherol amount in cell spall solution: 1 mM; for amount of α-tocopherol liberated in the reaction solution: final concentration 1 mM, not added: lower than detection limit
Method: The cells were harvested and spalled by freeze-thawing method. To this cell spall solution, 1), 2), 3) or 4) was added to have a final concentration of 1 mM. The resulting solution was kept at 37° C. for 2 hours and then the amount of α-tocopherol liberated in the reaction solution was measured.

[6] = 40 μL of 1% solution in Dulbecco's PBS (−) on tissue surface, 37° C., 5% CO2, 6 hours

CNCC(=O)Oc1cc2c(c(C)c1C)OC(C)(CCCC(C)CCCC(C)CCCC(C)C)CC2.Cl (stereo not drawn) [γ-Tocopherol sarcosine ester hydrochloride]
amount of γ-tocopherol in the skin [1]: 2.1 nmol/g of skin | increase of the γ-tocopherol amount in treated skin [1]: significant increase | level of tocopherol in model skin [2]: significantly increased | the amount of γ-tocopherol in model skin [2, 6]: 5.5 nmol/mg protein | increase of the γ-tocopherol amount in cell spall solution [3]: significant increase | amount of γ-tocopherol liberated in the reaction solution [3]: 30.3 nmol/ml of cell suspension

Cc1c(C)c2c(c(C)c1OC(=O)CN)CCC(C)(CCCC(C)CCCC(C)CCCC(C)C)O2 (stereo not drawn) [αa-tocopherol glycine ester, reference compound]
the amount of α-tocopherol in model skin [2, 6]: 1.2 nmol/mg protein

CC(=O)Oc1c(C)c(C)c2c(c1C)CCC(C)(CCC[C@H](C)CCC[C@H](C)CCCC(C)C)O2 (stereo partly drawn) [Tocopherol acetate, reference compound]
the amount of α-tocopherol in model skin ([2]; human, 6 h, 1 %): 1.0 nmol/mg protein

Cc1c(OC(=O)CN)cc2c(c1C)OC(C)(CCCC(C)CCCC(C)CCCC(C)C)CC2 (stereo not drawn) [γ-tocopherol glycine ester, reference compound]
the amount of γ-tocopherol in model skin [2, 6]: 1.5 nmol/mg protein

Cc1c(C)c2c(c(C)c1OC(=O)CN(C)C)CCC(C)(CCCC(C)CCCC(C)CCCC(C)C)O2.Cl (stereo not drawn) [α-Tocopherol dimethylglycine ester hydrochloride]
level of tocopherol in model skin [2]: significantly increased | the amount of α-tocopherol in model skin [2, 6]: 2.8 nmol/mg protein | amount of α-tocopherol in the skin [4]: 17 nmol/g of skin | increase of the α-tocopherol amount in treated skin [4]: significant increase | increase of the α-tocopherol amount in cell spall solution [5]: significant increase | amount of α-tocopherol liberated in the reaction solution [5]: 6.9 nmol/ml of cell suspension

Cc1c(OC(=O)CN(C)C)cc2c(c1C)OC(C)(CCCC(C)CCCC(C)CCCC(C)C)CC2.Cl (stereo not drawn) [γ-Tocopherol dimethylglycine ester hydrochloride]
amount of γ-tocopherol in the skin [1]: 20 nmol/g of skin | increase of the γ-tocopherol amount in treated skin [1]: significant increase | level of tocopherol in model skin [2]: significantly increased | the amount of γ-tocopherol in model skin [2, 6]: 4.7 nmol/mg protein | increase of the γ-tocopherol amount in cell spall solution [3]: significant increase | amount of γ-tocopherol liberated in the reaction solution [3]: 28.1 nmol/ml of cell suspension

CNCC(=O)Oc1c(C)c(C)c2c(c1C)CCC(C)(CCCC(C)CCCC(C)CCCC(C)C)O2.Cl (stereo not drawn) [α-Tocopherol sarcosine ester hydrochloride]
level of tocopherol in model skin [2]: significantly increased | the amount of α-tocopherol in model skin [2, 6]: 3.9 nmol/mg protein | amount of α-tocopherol in the skin [4]: 20 nmol/g of skin | increase of the α-tocopherol amount in treated skin [4]: significant increase | increase of the α-tocopherol amount in cell spall solution [5]: significant increase | amount of α-tocopherol liberated in the reaction solution [5]: 26.9 nmol/ml of cell suspension
